These results are taken from patent publication EP3478687B1 (Daewoong Pharmaceutical Co., Ltd., priority 2016, dated 2018).

The structures appear in SMILES notation. pIC50: −log10 of the molar value.

Assay [1] has as its target T1, Recombinant purified human JAK3 (Homo sapiens, UniProt P52333).
T1 construct: purchased Promega V9441
T1 sequence (P52333 1-1124): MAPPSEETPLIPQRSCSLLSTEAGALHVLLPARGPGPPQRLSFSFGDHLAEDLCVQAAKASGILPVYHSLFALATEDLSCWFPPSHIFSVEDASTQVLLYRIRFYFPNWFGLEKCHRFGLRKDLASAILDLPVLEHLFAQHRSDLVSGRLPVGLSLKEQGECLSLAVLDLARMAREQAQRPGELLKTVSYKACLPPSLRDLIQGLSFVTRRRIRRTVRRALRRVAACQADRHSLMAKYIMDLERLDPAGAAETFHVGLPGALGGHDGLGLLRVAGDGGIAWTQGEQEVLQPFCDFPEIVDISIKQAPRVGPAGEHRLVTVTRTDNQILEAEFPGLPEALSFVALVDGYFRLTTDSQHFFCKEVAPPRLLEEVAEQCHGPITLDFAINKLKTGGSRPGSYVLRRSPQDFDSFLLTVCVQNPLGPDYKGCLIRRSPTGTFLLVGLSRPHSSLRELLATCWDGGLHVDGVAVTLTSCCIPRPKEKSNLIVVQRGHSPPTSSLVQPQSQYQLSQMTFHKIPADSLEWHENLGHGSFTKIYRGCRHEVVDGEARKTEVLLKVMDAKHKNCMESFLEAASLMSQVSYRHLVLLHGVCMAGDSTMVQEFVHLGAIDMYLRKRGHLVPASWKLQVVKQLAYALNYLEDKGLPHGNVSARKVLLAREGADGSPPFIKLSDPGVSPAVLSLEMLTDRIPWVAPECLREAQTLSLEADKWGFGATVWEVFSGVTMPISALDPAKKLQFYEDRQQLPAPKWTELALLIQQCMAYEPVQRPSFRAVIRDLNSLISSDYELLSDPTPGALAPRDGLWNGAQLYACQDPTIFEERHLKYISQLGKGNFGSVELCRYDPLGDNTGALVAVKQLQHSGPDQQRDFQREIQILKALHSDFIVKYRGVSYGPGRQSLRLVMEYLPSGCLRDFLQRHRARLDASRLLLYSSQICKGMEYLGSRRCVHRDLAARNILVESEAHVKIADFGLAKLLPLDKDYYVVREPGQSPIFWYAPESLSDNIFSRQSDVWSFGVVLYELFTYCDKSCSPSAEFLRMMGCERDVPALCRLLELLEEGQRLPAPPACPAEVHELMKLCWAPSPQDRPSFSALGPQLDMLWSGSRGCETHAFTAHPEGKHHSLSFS
The assay can be described thus: JAK3 kinase inhibitory activity, ADP-Glo kinase assay (Promega V9441). Format: biochemical. As to conditions: ATP 5 uM, 4 ng JAK3 per reaction, 1 hour 30 °C, chemiluminescence. An outline of the steps: (§1)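 IC50 values come from ADP-Glo luminescence after 1 h kinase reactions at 30 °C in 1% DMSO on 0.2 µg/µL Poly(Glu4,Tyr1) substrate. ATP was 10 µM for BTK (8 ng, buffer containing MnCl2) and 5 µM for JAK3 (4 ng), in Tris-Cl pH 7.5/MgCl2/BSA/DTT.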
A general note: In ADP-Glo the light output rises with the ADP produced.

The target of assay [2] is T2, Recombinant purified human BTK (Homo sapiens, UniProt Q06187).
T2 construct: purchased Promega V9071
T2 sequence (Q06187 whole entry): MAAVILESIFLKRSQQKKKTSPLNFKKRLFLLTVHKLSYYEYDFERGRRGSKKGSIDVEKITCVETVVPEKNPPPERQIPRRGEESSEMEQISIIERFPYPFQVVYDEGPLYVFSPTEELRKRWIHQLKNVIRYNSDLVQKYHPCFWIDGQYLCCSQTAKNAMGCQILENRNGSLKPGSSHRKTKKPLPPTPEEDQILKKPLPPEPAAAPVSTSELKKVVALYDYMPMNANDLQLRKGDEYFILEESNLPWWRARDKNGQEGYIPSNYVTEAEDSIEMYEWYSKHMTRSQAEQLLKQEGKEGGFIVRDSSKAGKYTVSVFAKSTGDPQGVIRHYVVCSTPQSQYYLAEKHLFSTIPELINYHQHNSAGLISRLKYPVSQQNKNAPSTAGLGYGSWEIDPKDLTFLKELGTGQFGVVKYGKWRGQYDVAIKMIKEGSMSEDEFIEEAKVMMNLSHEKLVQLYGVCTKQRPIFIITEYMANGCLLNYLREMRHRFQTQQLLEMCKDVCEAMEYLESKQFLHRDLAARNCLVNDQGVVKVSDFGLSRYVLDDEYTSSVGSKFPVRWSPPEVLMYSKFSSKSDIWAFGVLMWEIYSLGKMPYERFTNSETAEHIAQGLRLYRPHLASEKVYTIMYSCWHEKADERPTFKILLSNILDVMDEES
Put plainly: BTK kinase inhibitory activity, ADP-Glo kinase assay (Promega V9071). Format: biochemical. Particulars: ATP 10 uM, 8 ng BTK per reaction, 1 hour 30 °C, chemiluminescence. The gist of the method:
as §1

In the case of `C=CC(=O)N1CC[C@@H](C)[C@@H](Nc2nc(Nc3cnn(CC#N)c3)nc3[nH]nc(Cl)c23)C1` [Example 126, 2-(4-((4-(((3R,4R)-1-acryloyl-4-methylpiperidin-3-yl)amino)-3-chloro-1H-pyrazolo[3,4-d]pyrimidin-6-yl)amino)-1H-pyrazol-1-yl)acetonitrile], the negative-log IC50 (pIC50) was 8.54 in assay [1] and 8.92 in assay [2].
Regarding `C=CC(=O)N1CC[C@@H](C)[C@@H](Nc2nc(Nc3cnn(C(F)F)c3)nc3[nH]nc(Cl)c23)C1` [Example 127, 1-((3R,4R)-3-((3-chloro-6-((1-(difluoromethyl)-1H-pyrazol-4-yl)amino)-1H-pyrazolo [3,4-d]pyrimidin-4-yl)amino)-4-methylpiperidin-1-yl)prop-2-en-1-one], the pIC50 in assay [1] is 7.37; in assay [2] it was 8.82.
For `C=CC(=O)N1CC[C@@H](C)[C@@H](Nc2nc(Nc3cnn(C)c3)nc3[nH]nc(Cl)c23)C1` [Example 128], the pIC50 was 7.84 in assay [1] and 8.24 in assay [2].
The matching figures for `C=CC(=O)N1CCC[C@@H](Nc2nc(Nc3cnn(C4CC4)c3)nc3[nH]nc(SC)c23)C1` [Example 129]: 7.37 and 8.64.
On to `C=CC(=O)N1CCC[C@@H](N(C)c2nc(Nc3cnn(CC)c3)nc3[nH]nc(SC)c23)C1` [Example 131, (R)-1-(3-((6-((1-ethyl-1H-pyrazol-4-yl)amino)-3-(methylthio)-1H-pyrazolo [3,4-d]pyrimidin-4-yl)(methyl)amino)piperidin-1-yl)prop-2-en-1-one], for which the values for the pIC50 in assay [1] and in assay [2] were 7.61 and 8.80, respectively.
Turning to `C=CC(=O)N1CC[C@@H](C)[C@@H](Nc2nc(Nc3cnn(CC)c3)nc3[nH]nc(SC)c23)C1` [Example 132, 1-((3R,4R)-3-((6-((1-ethyl-1H-pyrazol-4-yl)amino)-3-(methylthio)-1H-pyrazolo[3,4-d]pyrimidin-4-yl)amino)-4-methylpiperidin-1-yl)prop-2-en-1-one], the figures for the pIC50 in assay [1] and in assay [2] were 7.59 and 8.68, respectively.
The matching figures for `C=CC(=O)N1CC[C@@H](C)[C@@H](Nc2nc(Nc3cnn(CC(F)F)c3)nc3[nH]nc(SC)c23)C1` [Example 133, 1-((3R,4R)-3-((6-((1-(2,2-difluoroethyl)-1H-pyrazol-4-yl)amino)-3-(methylthio)-1H-pyrazolo [3,4-d]pyrimidin-4-yl)amino)-4-methylpiperidin-1-yl)prop-2-en-1-one]: 7.80 and 8.80.
Regarding `C=CC(=O)N1CC[C@@H](C)[C@@H](Nc2nc(Nc3cnn(CC#N)c3)nc3[nH]nc(SC)c23)C1` [Example 134, 2-(4-((4-(((3R,4R)-1-acryloyl-4-methylpiperidin-3-yl)amino)-3-(methylthio)-1H-pyrazolo[3,4-d]pyrimidin-6-yl)amino)-1H-pyrazol-1-yl)acetonitrile], the negative-log IC50 (pIC50) in assay [1] was 7.75; in assay [2], 8.74.
On to `C=CC(=O)N1CC[C@@H](C)[C@@H](Nc2nc(Nc3cnn(C4CC4)c3)nc3[nH]nc(SC)c23)C1` [Example 135, 1-((3R,4R)-3-((6-((1-cyclopropyl-1H-pyrazol-4-yl)amino)-3-(methylthio)-1H-pyrazolo[3,4-d]pyrimidin-4-yl)amino)-4-methylpiperidin-1-yl)prop-2-en-1-one], for which the negative-log IC50 (pIC50) in assay [1] is 7.37; in assay [2], 8.64.
Consider `C=CC(=O)N1CCC[C@@H](Nc2nc(Nc3cc(C)ns3)nc3[nH]cc(Cl)c23)C1` [Example 136, (R)-1-(3-((5-chloro-2-((3-methylisothiazol-5-yl)amino)-7H-pyrrolo[2,3-d]pyrimidin-4-yl)amino)piperidin-1-yl)prop-2-en-1-one], for which the values for the pIC50 in assay [1] and in assay [2] were 10.00 and 8.96, respectively.
The matching figures for `C=CC(=O)N1CCC[C@@H](Nc2nc(Nc3cccnc3)nc3[nH]cc(Cl)c23)C1` [Example 137, (R)-1-(3-((5-chloro-2-(pyridin-3-ylamino)-7H-pyrrolo[2,3-d]pyrimidin-4-yl)amino)piperidin-1-yl)prop-2-en-1-one]: 8.59 and 7.71.
On to `CCn1cc(Nc2nc(N[C@H]3CN(C(=O)CC#N)CC[C@H]3F)c3c(Cl)n[nH]c3n2)cn1` [Example 138], for which the values for the negative-log IC50 (pIC50) in assay [1] and in assay [2] were < 7.10 and 7.03, respectively.
Turning to `N#CCC(=O)N1CCC[C@@H](Nc2nc(Nc3cnn(C4CC4)c3)nc3[nH]nc(Cl)c23)C1` [Example 139, (R)-3-(3-((3-chloro-6-((1-cyclopropyl-1H-pyrazol-4-yl)amino)-1H-pyrazolo[3,4-d]pyrimidin-4-yl)amino)piperidin-1-yl)-3-oxopropanenitrile], the pIC50 was < 7.10 in assay [1] and 6.85 in assay [2].
The matching figures for `C/C=C/C(=O)N1CCC[C@@H](Nc2nc(Nc3ccc(N4CCN(C)CC4)cc3)nc3[nH]cc(Cl)c23)C1` [Example 140, (R,E)-1-(3-((5-chloro-2-((4-(4-methylpiperazin-1-yl)phenyl)amino)-7H-pyrrolo [2,3-d]pyrimidin-4-yl)amino)piperidin-1-yl)but-2-en-1-one]: < 7.10 and 6.01.
The matching figures for `CN1CCN(c2ccc(Nc3nc(N[C@@H]4CCCN(C(=O)C#CC5CC5)C4)c4c(Cl)c[nH]c4n3)cc2)CC1` [Example 141, (R)-1-(3-((5-chloro-2-((4-(4-methylpiperazin-1-yl)phenyl)amino)-7H-pyrrolo [2,3-d]pyrimidin-4-yl)amino)piperidin-1-yl)-3-cyclopropylprop-2-yn-1-one]: 7.41 and 6.51.
Consider `CCC#CC(=O)N1CCC[C@@H](Nc2nc(Nc3ccc(N4CCN(C)CC4)cc3)nc3[nH]cc(Cl)c23)C1` [Example 142, (R)-1-(3-((5-chloro-2-((4-(4-methylpiperazin-1-yl)phenyl)amino)-7H-pyrrolo[2,3-d]pyrimidin-4-yl)amino)piperidin-1-yl)pent-2-yn-1-one], for which the pIC50 in assay [1] was 7.65; in assay [2], 6.68.
The matching figures for `C=CC(=O)N1CCC[C@@H](Nc2nc(Nc3cnn(CC(F)(F)F)c3)nc3[nH]ncc23)C1` [Example 144, (R)-1-(3-((6-((1-(2,2,2-trifluoroethyl)-1H-pyrazol-4-yl)amino)-1H-pyrazolo[3,4-d]pyrimidin-4-yl)amino)piperidin-1-yl)prop-2-en-1-one]: 8.85 and 8.82.
With `C=CC(=O)N1CCC[C@@H](Nc2nc(Nc3cnn(CCN(CC)CC)c3)nc3[nH]ncc23)C1` [Example 145, (R)-1-(3-((6-((1-(2-(diethylamino)ethyl)-1H-pyrazol-4-yl)amino)-1H-pyrazolo[3,4-d]pyrimidin-4-yl)amino)piperidin-1-yl)prop-2-en-1-one], the results for the pIC50 in assay [1] and in assay [2] were 8.77 and 8.85, respectively.
On to `C=CC(=O)N1CCC[C@@H](Nc2nc(Nc3cnoc3)nc3[nH]ncc23)C1` [Example 146, (R)-1-(3-((6-(isoxazol-4-ylamino)-1H-pyrazolo[3,4-d]pyrimidin-4-yl)amino)piperidin-1-yl)prop-2-en-1-one], for which the values for the pIC50 in assay [1] and in assay [2] were 8.13 and 8.85, respectively.
The matching figures for `C=CC(=O)N1CCC[C@@H](Oc2nc(Nc3cnn(CC)c3)nc3[nH]nc(Cl)c23)C1` [Example 147]: 8.85 and 8.68.
With `C=CC(=O)N1CCC[C@@H](Oc2nc(Nc3cnn(C4CC4)c3)nc3[nH]cc(C#N)c23)C1` [Example 148, (R)-4-((1-acryloylpiperidin-3-yl)oxy)-2-((1-cyclopropyl-1H-pyrazol-4-yl)amino)-7H-pyrrolo[2,3-d]pyrimidine-5-carbonitrile], the results for the pIC50 in assay [1] and in assay [2] were 9.52 and 8.80, respectively.
The matching figures for `C=CC(=O)N1CCC[C@@H](Oc2nc(Nc3cnn(CC(F)F)c3)nc3[nH]cc(C#N)c23)C1` [Example 149, (R)-4-((1-acryloylpiperidin-3-yl)oxy)-2-((1-(2,2-difluoroethyl)-1H-pyrazol-4-yl)amino)-7H-pyrrolo[2,3-d]pyrimidine-5-carbonitrile]: 9.70 and 8.80.

Broadly, the pIC50 is the IC50 on a negative log10 scale, so that one unit is a factor of ten.
